Measurements: PubChem BioAssay AID258 (DTP/NCI, 2004)
“And” between values parts separate entries of the source, which are not always exact repeats. Identical values can stand only once. Inconclusive results and toxic doses are left out.

Tested on: CD2F1 mice, L1210 leukemia sc, survival T/C
Assay: NCI In Vivo Anticancer Drug Screen. Data for tumor model L1210 Leukemia (subcutaneous) in CD2F1 (CDF1) mice
Conditions: higher = longer survival
Method in brief: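 Antitumor activity is scored in tumor-bearing mice by comparing survival or tumor size of treated animals against vehicle-treated controls, reported as T/C.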

## CN(Cc1cnc2nc(N)nc(N)c2n1)c1ccc(C(=O)N[C@@H](CCC(=O)O)C(=O)O)cc1
endpoint: mean survival time, dose: 1.08 mg/kg/injection, schedule: Q01DX009 (sc), vehicle: other
  T/C: 170 % of control
endpoint: mean survival time, dose: 1.8 mg/kg/injection, schedule: Q01DX009 (sc), vehicle: other
  T/C: 158 % of control
endpoint: mean survival time, dose: 3.0 mg/kg/injection, schedule: Q01DX009 (sc), vehicle: other
  T/C: 168 % of control
endpoint: mean survival time, dose: 5.0 mg/kg/injection, schedule: Q01DX017 (sc), vehicle: other
  T/C: 124 % of control
endpoint: median survival time, dose: 0.08 mg/kg/injection, schedule: Q## X Z (sc), vehicle: other
  T/C: 155 % of control
endpoint: median survival time, dose: 0.1 mg/kg/injection, schedule: Q#A X Z (oral), vehicle: other
  T/C: 104 % of control
endpoint: median survival time, dose: 0.1 mg/kg/injection, schedule: Q#A X Z (sc), vehicle: other
  T/C: 122 % of control
endpoint: median survival time, dose: 0.14 mg/kg/injection, schedule: Q## X Z (sc), vehicle: other
  T/C: 155 % of control
endpoint: median survival time, dose: 0.16 mg/kg/injection, schedule: Q#A X Z (oral), vehicle: other
  T/C: 109 % of control
endpoint: median survival time, dose: 0.23 mg/kg/injection, schedule: Q#A X Z (sc), vehicle: other
  T/C: 122 % of control
endpoint: median survival time, dose: 0.25 mg/kg/injection, schedule: Q01DX Z (sc), vehicle: other
  T/C: 112 % of control and 116 % of control
endpoint: median survival time, dose: 0.27 mg/kg/injection, schedule: Q01DX Z (oral), vehicle: other
  T/C: 109 % of control
endpoint: median survival time, dose: 0.27 mg/kg/injection, schedule: Q#A X Z (oral), vehicle: other
  T/C: 122 % of control
endpoint: median survival time, dose: 0.3 mg/kg/injection, schedule: Q01DX Z (sc), vehicle: sodium bicarbonate
  T/C: 111 % of control
endpoint: median survival time, dose: 0.38 mg/kg/injection, schedule: Q01DX009 (ip), vehicle: sodium bicarbonate
  T/C: 108 % of control
endpoint: median survival time, dose: 0.39 mg/kg/injection, schedule: Q01DX Z (ip), vehicle: other
  T/C: 115 % of control
endpoint: median survival time, dose: 0.39 mg/kg/injection, schedule: Q01DX Z (iv), vehicle: other
  T/C: 105 % of control
endpoint: median survival time, dose: 0.39 mg/kg/injection, schedule: Q01DX Z (oral), vehicle: other
  T/C: 100 % of control
endpoint: median survival time, dose: 0.39 mg/kg/injection, schedule: Q02DX Z (sc), vehicle: other
  T/C: 111 % of control
endpoint: median survival time, dose: 0.45 mg/kg/injection, schedule: Q01DX Z (oral), vehicle: other
  T/C: 100 % of control
endpoint: median survival time, dose: 0.45 mg/kg/injection, schedule: Q#A X Z (sc), vehicle: other
  T/C: 159 % of control
endpoint: median survival time, dose: 0.47 mg/kg/injection, schedule: Q01DX Z (oral), vehicle: other
  T/C: 111 % of control
endpoint: median survival time, dose: 0.48 mg/kg/injection, schedule: Q01DX Z (oral), vehicle: other
  T/C: 100 % of control
endpoint: median survival time, dose: 0.5 mg/kg/injection, schedule: Q01DX009 (ip), vehicle: sodium bicarbonate
  T/C: 112 % of control
endpoint: median survival time, dose: 0.62 mg/kg/injection, schedule: Q01DX Z (sc), vehicle: other
  T/C: 160 % of control
endpoint: median survival time, dose: 0.65 mg/kg/injection, schedule: Q01DX009 (sc), vehicle: other
  T/C: 152 % of control
endpoint: median survival time, dose: 0.65 mg/kg/injection, schedule: Q01DX009 (sc), vehicle: sodium bicarbonate
  T/C: 150 % of control
endpoint: median survival time, dose: 0.65 mg/kg/injection, schedule: Q01DX Z (iv), vehicle: other
  T/C: 111 % of control
endpoint: median survival time, dose: 0.65 mg/kg/injection, schedule: Q01DX Z (oral), vehicle: other
  T/C: 105 % of control
endpoint: median survival time, dose: 0.65 mg/kg/injection, schedule: Q02DX Z (sc), vehicle: other
  T/C: 105 % of control
endpoint: median survival time, dose: 0.65 mg/kg/injection, schedule: Q## X Z (sc), vehicle: other
  T/C: 122 % of control
endpoint: median survival time, dose: 0.65 mg/kg/injection, schedule: Q#A X Z (sc), vehicle: other
  T/C: 161 % of control
endpoint: median survival time, dose: 0.75 mg/kg/injection, schedule: Q01DX009 (ip), vehicle: sodium bicarbonate
  T/C: 113 % of control
endpoint: median survival time, dose: 0.75 mg/kg/injection, schedule: Q01DX Z (ip), vehicle: water
  T/C: 175 % of control
endpoint: median survival time, dose: 0.76 mg/kg/injection, schedule: Q01DX Z (oral), vehicle: other
  T/C: 122 % of control
endpoint: median survival time, dose: 0.76 mg/kg/injection, schedule: Q#A X Z (oral), vehicle: other
  T/C: 150 % of control
endpoint: median survival time, dose: 0.79 mg/kg/injection, schedule: Q01DX Z (oral), vehicle: other
  T/C: 105 % of control
endpoint: median survival time, dose: 1.08 mg/kg/injection, schedule: Q01DX009 (sc), vehicle: sodium bicarbonate
  T/C: 171 % of control
endpoint: median survival time, dose: 1.08 mg/kg/injection, schedule: Q01DX Z (oral), vehicle: other
  T/C: 110 % of control
endpoint: median survival time, dose: 1.25 mg/kg/injection, schedule: Q01DX Z (sc), vehicle: other
  T/C: 180 % of control
endpoint: median survival time, dose: 1.26 mg/kg/injection, schedule: Q01DX Z (oral), vehicle: other
  T/C: 168 % of control and 181 % of control
endpoint: median survival time, dose: 1.26 mg/kg/injection, schedule: Q01DX Z (sc), vehicle: other
  T/C: 181 % of control
endpoint: median survival time, dose: 1.26 mg/kg/injection, schedule: Q#A X Z (oral), vehicle: other
  T/C: 118 % of control
endpoint: median survival time, dose: 1.3 mg/kg/injection, schedule: Q01DX Z (oral), vehicle: other
  T/C: 166 % of control
endpoint: median survival time, dose: 1.31 mg/kg/injection, schedule: Q01DX Z (oral), vehicle: other
  T/C: 111 % of control
